From PubChem BioAssay AID2060893 (Molecular Pharmacology Branch, DTP, NCI, 2025)
pIC50: −log10 of the molar value.

Test system: K86415-001-R-J1-PDC complex spheroids, viability
Experiment: Anticancer human tumor K86415-001-R-J1-PDC patient-derived lung adenocarcinoma cell line growth inhibition [RAS]
Settings: for pIC50: curve of first compound; for viability, T/C: stronger effect = lower value; active = viability on the fitted dose curve at most 10% of control; inactive = the rest
Procedure, shortened: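 Agents were tested in combination matrices in half-log decrements from a top concentration at or near clinical Cmax (10 microM if undetermined). Targets were multi-cell spheroids of tumour lines plus HUVEC and MSC stromal cells.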
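Note: spheroids exposed to agents for seven days before readout.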

CC1(C)CCC(Nc2ncc(C(F)(F)F)c(-c3c[nH]c4c(P(C)(C)=O)c(C#N)ccc34)n2)CN1 (centres undefined) + C#Cc1c(F)ccc2cc(O)cc(-c3ncc4c(N5CC6CCC(C5)N6)nc(OCC56CCCN5CC(F)C6)nc4c3F)c12
< 6.52: pIC50 (second compound 0.1 µM) | pIC50 (second compound 1 µM) | pIC50 (second compound 3.16 µM)
6.52: pIC50 (second compound 0.0316 µM) | pIC50 (second compound 0.316 µM)
> 9.02: pIC50 (second compound 10 µM)
inactive: viability, T/C (second compound 0.0316 µM, first compound 0.000949 µM) 103% | viability, T/C (second compound 0.0316 µM, first compound 0.003 µM) 131% | viability, T/C (second compound 0.0316 µM, first compound 0.00949 µM) 75.3% | viability, T/C (second compound 0.0316 µM, first compound 0.03 µM) 59.8% | viability, T/C (second compound 0.0316 µM, first compound 0.0949 µM) 56.6% | viability, T/C (second compound 0.0316 µM, first compound 0.3 µM) 55.5% | viability, T/C (second compound 0.1 µM, first compound 0.000949 µM) 103% | viability, T/C (second compound 0.1 µM, first compound 0.003 µM) 118% | viability, T/C (second compound 0.1 µM, first compound 0.00949 µM) 77.3% | viability, T/C (second compound 0.1 µM, first compound 0.03 µM) 62% | viability, T/C (second compound 0.1 µM, first compound 0.0949 µM) 57.4% | viability, T/C (second compound 0.1 µM, first compound 0.3 µM) 61% | viability, T/C (second compound 0.316 µM, first compound 0.000949 µM) 101% | viability, T/C (second compound 0.316 µM, first compound 0.003 µM) 119% | viability, T/C (second compound 0.316 µM, first compound 0.00949 µM) 78.3% | viability, T/C (second compound 0.316 µM, first compound 0.03 µM) 60.4% | viability, T/C (second compound 0.316 µM, first compound 0.0949 µM) 62.8% | viability, T/C (second compound 0.316 µM, first compound 0.3 µM) 61.9% | viability, T/C (second compound 1 µM, first compound 0.000949 µM) 78.5% | viability, T/C (second compound 1 µM, first compound 0.003 µM) 103% | viability, T/C (second compound 1 µM, first compound 0.00949 µM) 76.5% | viability, T/C (second compound 1 µM, first compound 0.03 µM) 57.4% | viability, T/C (second compound 1 µM, first compound 0.0949 µM) 60.6% | viability, T/C (second compound 1 µM, first compound 0.3 µM) 65.5% | viability, T/C (second compound 3.16 µM, first compound 0.000949 µM) 39.1% | viability, T/C (second compound 3.16 µM, first compound 0.003 µM) 64.3% | viability, T/C (second compound 3.16 µM, first compound 0.00949 µM) 60.5% | viability, T/C (second compound 3.16 µM, first compound 0.03 µM) 49.5% | viability, T/C (second compound 3.16 µM, first compound 0.0949 µM) 47.9% | viability, T/C (second compound 3.16 µM, first compound 0.3 µM) 55.8% | viability, T/C (second compound 10 µM, first compound 0.000949 µM) 19% | viability, T/C (second compound 10 µM, first compound 0.003 µM) 22% | viability, T/C (second compound 10 µM, first compound 0.00949 µM) 26.7% | viability, T/C (second compound 10 µM, first compound 0.03 µM) 29.1% | viability, T/C (second compound 10 µM, first compound 0.0949 µM) 33.6% | viability, T/C (second compound 10 µM, first compound 0.3 µM) 34.3%

C=CC(=O)Nc1cc(Nc2nccc(-c3cn(C)c4ccccc34)n2)c(OC)cc1N(C)CCN(C)C + C=CC(=O)N1CCN(c2nc(OCC3CCCN3C)nc3c(F)c(-c4nc(N)cc(C)c4C(F)(F)F)c(Cl)cc23)C(C)C1
inactive: viability, T/C (second compound 0.00316 µM, first compound 0.00316 µM) 19.7% | viability, T/C (second compound 0.00316 µM, first compound 0.01 µM) 17.1% | viability, T/C (second compound 0.00316 µM, first compound 0.0316 µM) 15.6% | viability, T/C (second compound 0.00316 µM, first compound 0.1 µM) 13.2% | viability, T/C (second compound 0.01 µM, first compound 0.00316 µM) 11.2% | viability, T/C (second compound 0.01 µM, first compound 0.01 µM) 10.3% | viability, T/C (second compound 0.0316 µM, first compound 0.00316 µM) 10.1% | viability, T/C (second compound 0.1 µM, first compound 0.00316 µM) 10% | viability, T/C (second compound 1 µM, first compound 0.00316 µM) 11%
active: viability, T/C (second compound 0.00316 µM, first compound 0.316 µM) 8.17% | viability, T/C (second compound 0.00316 µM, first compound 1 µM) 7.25% | viability, T/C (second compound 0.01 µM, first compound 0.0316 µM) 11% | viability, T/C (second compound 0.01 µM, first compound 0.1 µM) 8.19% | viability, T/C (second compound 0.01 µM, first compound 0.316 µM) 6.56% | viability, T/C (second compound 0.01 µM, first compound 1 µM) 6.11% | viability, T/C (second compound 0.0316 µM, first compound 0.01 µM) 11.4% | viability, T/C (second compound 0.0316 µM, first compound 0.0316 µM) 8.27% | viability, T/C (second compound 0.0316 µM, first compound 0.1 µM) 6% | viability, T/C (second compound 0.0316 µM, first compound 0.316 µM) 5.17% | viability, T/C (second compound 0.0316 µM, first compound 1 µM) 5.86% | viability, T/C (second compound 0.1 µM, first compound 0.01 µM) 9.55% | viability, T/C (second compound 0.1 µM, first compound 0.0316 µM) 8.9% | viability, T/C (second compound 0.1 µM, first compound 0.1 µM) 7.91% | viability, T/C (second compound 0.1 µM, first compound 0.316 µM) 5.85% | viability, T/C (second compound 0.1 µM, first compound 1 µM) 5.65% | viability, T/C (second compound 0.316 µM, first compound 0.00316 µM) 8.48% | viability, T/C (second compound 0.316 µM, first compound 0.01 µM) 10.5% | viability, T/C (second compound 0.316 µM, first compound 0.0316 µM) 11.3% | viability, T/C (second compound 0.316 µM, first compound 0.1 µM) 6.83% | viability, T/C (second compound 0.316 µM, first compound 0.316 µM) 5.85% | viability, T/C (second compound 0.316 µM, first compound 1 µM) 5.41% | viability, T/C (second compound 1 µM, first compound 0.01 µM) 10.2% | viability, T/C (second compound 1 µM, first compound 0.0316 µM) 7.67% | viability, T/C (second compound 1 µM, first compound 0.1 µM) 8.2% | viability, T/C (second compound 1 µM, first compound 0.316 µM) 7.08% | viability, T/C (second compound 1 µM, first compound 1 µM) 6.01%
> 8.50: pIC50 (second compound 0.00316 µM) | pIC50 (second compound 0.01 µM) | pIC50 (second compound 0.0316 µM) | pIC50 (second compound 0.1 µM) | pIC50 (second compound 0.316 µM) | pIC50 (second compound 1 µM)
